Assay results taken from article PMC7367369, “A small library of chalcones induce liver cancer cell death through Akt phosphorylation inhibition” (Scientific Reports, 2020).

Tests used:
Type in all cases: cell-based, human
Hep3B = assay: NCI-60 sulforhodamine B (SRB) cytotoxicity assay, Hep3B; conditions: Homo sapiens, Hep3B; SRB, 72 h, 2.5–40 μM, triplicate; read-out: IC50 Hep3B
Description: (§1) The bioactivities of the synthesized chalcones were assessed on human liver cancer cell lines and on DPSCs with NCI-SRB assay in vitro. DPSCs used to asses the bioactivity of chalcones on untransformed control cells with the potential of hepatic lineage. […] We also included 5-Fluorouracil which is used in clinics for gastrointestinal cancers and Sorafenib. All results were normalized to DMSO negative control measurements. The experiment was performed in triplicate.
(§2) Well differentiated human primary liver cancer cell lines Huh7, HepG2 and Hep3B, and poorly differentiated Mahlavu, FOCUS and SNU475 HCC cells were cultured in Dulbecco’s Modified Eagle’s Standard (DMEM) medium supplemented with 10% Fetal Bovine Serum (FBS), 100 units/mL penicillin and 100 µg/mL streptomycin (Gibco, Invitrogen, Carlsbad, CA, USA). 0.1 mM nonessential amino acids (NEAA) which are specific to HCC cell lines also added to culture media. Cells were cultured in a 5% CO2 incubator at 37^∘C
(§3) Primary liver cancer cells Huh7, HepG2, Hep3B, Mahlavu, FOCUS, Snu475 along with hepatic progenitor Dental pulp stem cells were seeded into 96-well plates (1,000–3,000 HCC cell/well and 10,000 cells DPSC/well ) for 24 h. The cells were then treated with increasing concentrations of the chalcones ( 2.5-40μM ). DMSO (AppliChem Biochemica, Darmstadt, Germany) was used as negative control. The growth has stopped at the end of 72 h by fixing cold with 10% (v/v) trichloroacetic acid (Merck, Schuchardt, Germany). Cells were then stained with 0.4% (m/v) of sulforhodamine (Sigma-Aldrich, St. Louis, USA) in 1% acetic acid solution. […] All experiments were done in triplicate.

SNU475 = assay: NCI-60 sulforhodamine B (SRB) cytotoxicity assay, SNU475; conditions: Homo sapiens, SNU-475; SRB, 72 h, 2.5–40 μM, triplicate; read-out: IC50 SNU475
Description: as §1, §2, §3

[1] = test system: pAkt (Ser473) in Mahlavu cells; assay: Western blot, phosphorylated Akt levels; conditions: IC50 concentrations (Fig. 2), 24 h
Description: Figure 4 Proteins targeted by the compounds. Human liver cancer cells (Mahlavu) were treated with the IC50 concentrations of the selected compounds or DMSO control for 24 h. […] (B–D) Quantification of the results using ImageJ software. (E) Schematic representation of the molecular mechanism of action of the compounds. Blocked signaling is crossed.
In order to investigate the significant bioactivity of the chalcones 1, 9 and 11 on human liver cancer cell line Mahlavu which has an hyperactive PI3K/Akt pathway due to PTEN-deficiency[13], we analyzed the effect of the chalcones on the active phosphorylated Akt levels in this cell line.
Poorly differentiated liver cancer cell line Mahlavu cells were cultured in 100 mm culture dish for 24 h. […] Anti-PARP antibody (Cell Signaling, 9532), pAkt (Ser473) antibody (Cell Signaling, 9271), Akt antibody (Cell Signaling, 9272), pNFkB-p65 (Ser468) antibody (Snat Cruz, sc101750), p21 antibody (Millipore, 05345), pRb (Ser807/811) antibody (Cell Signaling, 9308), Rb antibody (Santa Cruz, sc102), actin antibody (Sigma, A5441) and calnexin antibody (Sigma, C4731) were used as primary antibodies. Anti-rabbit (6154) and anti-mouse (0168) secondary antibodies were used. ImageJ tool ([42]) used for protein band intensity comparison. Original Full length blots are given as Supplementary Information.

Mahlavu = assay: NCI-60 sulforhodamine B (SRB) cytotoxicity assay, Mahlavu; conditions: Homo sapiens, Mahlavu; SRB, 72 h, 2.5–40 μM, triplicate; read-out: IC50 Mahlavu
Description: as §1, §2, §3

[2] = test system: dental pulp stem cells (DPSC); assay: NCI-60 sulforhodamine B (SRB) cytotoxicity assay, dental pulp stem cells; conditions: Homo sapiens; SRB, 72 h, 2.5–40 μM, triplicate; untransformed control cells; read-out: IC50 DPSC
Description: as §1
Dental pulp stem cells (DPSCs) were isolated from anonymised unidentified healthy intact wisdom tooth. DPSCs were isolated within few hours upon wisdom teeth surgery from patients above 18 years old. All were informed about the procedures, and their consents were obtained. Teeth were broken carefully in order to reach the dental pulp area. […] Then, the cells were seeded onto flasks in 10ml DMEM-F12 media (Lonza) supplemented with 1% penicillin/streptomycin solution (Hyclone) and 15% FBS (Fetal Bovine Serum,Hyclone, Logan, UT, USA) and cultured in a 5% CO2 incubator at 37^∘C .
as §3

Mahlavu and Huh7 cells = assay: Cell cycle analysis (propidium iodide); conditions: Mahlavu and Huh7, IC50 concentrations, 72 h
Description: Human liver cancer cells Mahlavu and Huh7 were treated with the compounds according to the IC50 values obtained from RT-CES experiments or DMSO controls for 72hr. […] We further assessed the effects of the selected chalcones 1, 9, and 11 on the cell cycle progression analysis of liver cancer cells. Human liver cancer cells Mahlavu and Huh7 were treated with the compounds according to the IC50 values obtained from RT-CES for 72 h. Then the DNA in the treated cells were stained with propidium iodide and analyzed with fluorescent-activated cell sorter. […] In order to confirm the induction of apoptosis in human liver cancer cells treated with the chalcones, cleavage of PARP protein (marker of apoptosis) was investigated.
Figure 3 Cell death induced by the chalcones. (A) Nuclear staining of the liver cancer cells treated with the chalcones. Human liver cancer cells (Huh7 and Mahlavu) were treated with the IC50 concentrations of the chalcones 1, 9, 11. After 72 h of incubation with the compounds or DMSO control, Hoechst (33258) staining was performed. Images were taken with fluorescent microscope (×40). Due to the strong cytotoxic activities of the chalcones the number of the cells in objective area was much less than DMSO controls. (B) Cell cycle distribution of liver cancer cells. Huh7 and Mahlavu cells were treated for 72 h with IC50 concentrations of the compounds or DMSO control. SubG1 cell cycle arrest was observed upon treatment with the compounds (blue). (C) Investigation of PARP cleavage in Huh7 and Mahlavu cells treated with the selected chalcones for 24 h.
Then samples were stained with propidium iodide which binds to DNA and analyzed with MUSE® Cell Cycle Assay Kit (EMD Milipore).

Compound	IC50 (Hep3B)	IC50 (SNU475)	levels of pAkt [1]	IC50 (Mahlavu)	IC50 [2]	cell cycle progression (Mahlavu and Huh7 cells)
O=C(/C=C/c1ccc(Cl)cc1)c1ccccc1 [compound 11]	5.9 µM	9 µM	decrease in the levels of pAkt	5.3 µM	19.1 µM	induced SubG1 cell cycle arrest
O=C(/C=C/c1ccccc1)c1ccccc1 [compound 9]	7.3 µM	5 µM	decrease in the levels of pAkt	6.3 µM	25.7 µM	induced SubG1 cell cycle arrest
COc1ccc(C(=O)/C=C/c2cccc([N+](=O)[O-])c2)cc1 [compound 1]	6.2 µM	3 µM	decrease in the levels of pAkt	< 2.5 µM	> 40 µM	induced SubG1 cell cycle arrest
